The results in this text go back to publication PMC12155760, “A cobalamin-dependent pathway of choline demethylation from the human gut acetogen Eubacterium limosum [drawing 1]” (The Journal of Biological Chemistry, 2025).

In one series the test system is MthB. The series is described as follows: UV/Vis, methyl-Co(III)-MthC formation at […] nm. The following applies: co-substrate 30 μM Co(I)-MthC, RamQ, Ti(III)citrate, 2 mM ATP, MOPS pH 7.2, 37 °C; read-out: apparent KM. The format is biochemical, Eubacterium limosum.
The next series concerns the target T1, MthA (Eubacterium limosum, UniProt A0AAC9QR60).
T1 construct: gene B2M23_01055
T1 sequence (A0AAC9QR60 1-264): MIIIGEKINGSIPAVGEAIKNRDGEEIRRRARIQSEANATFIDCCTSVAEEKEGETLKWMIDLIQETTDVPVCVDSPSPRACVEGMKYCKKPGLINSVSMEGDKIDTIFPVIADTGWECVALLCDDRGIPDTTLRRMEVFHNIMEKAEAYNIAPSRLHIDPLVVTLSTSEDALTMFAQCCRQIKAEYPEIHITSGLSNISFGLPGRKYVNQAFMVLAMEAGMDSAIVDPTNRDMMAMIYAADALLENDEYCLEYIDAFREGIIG
The experiment in a line: HPLC, methyl-THF formation. The class given is biochemical. Conditions: 5 mM THF, MthB, MthC, RamQ, Ti(III)citrate, ATP, 50 mM phosphocholine, MOPS pH 7.0, 24 °C.

Substrate in the series “purified protein”: C[N+](C)(C)CCO
The series is described as follows: purified protein. The format is biochemical, Eubacterium limosum. Conditions: 5 mM ATP, 10 mM MgCl2, 100 mM KCl, glycine-NaOH pH 9.0.

Take `C[N+](C)(C)CCOP(=O)([O-])O` [phosphocholine]: the Km in the series on MthB was 11.3 ± 1.9 mM.

For `Nc1nc2c(c(=O)[nH]1)N[C@@H](CNc1ccc(C(=O)N[C@@H](CCC(=O)O)C(=O)O)cc1)CN2` [THF], the “HPLC, methyl-THF formation” value on MthA is recorded as “the further addition of MthA allowed the methylation of THF with phosphocholine as assayed by HPLC”.

B1: MthK (Eubacterium limosum) (protein)
chain: MVDGKFIEMQTEIMKNYPPANAQALLNIFNAASGMQEYLDNVLAKTRESYLYTQLRDLVENYYDIGTLLDVYQIFGGYINTSFGIYTEKNGKKQTWFVRKYKNGKELESLLFEHSMLKYAKENGFSYGAVPIPAKDGKTYHEVTETTTEGETKSYFAVFNFVGGKAHYDWIPNWANAGVADLTVISAAKSLAEFHNSTRGFDPEGRHGDNIMDNEDITVNEIIRKFPKTLKEYRKSYAEAGFENVYTEYYDANYDYFAKMCERSVIPDVDYDTMVSNVCHCDFHPGNFKYLDNGEVCGSFDYDMAKIDSRLFELGLAIHYCFSSWLSDTNGIINLDRASLFVKTYDEELHKAGGIEPLTDIEKKYLYEVTVQGALYDLGWCSSACVYDSTLDPYEYLFYTQHFVACLKWLEANEAAFRKAFD
For B1, in the series “purified protein”, the Km is 0.0028 ± 0.0002 mM and the catalytic constant (kcat) was 13.8 ± 0.28 s⁻¹.

By Km is commonly meant the substrate concentration at which the rate is half of its maximum. For orientation: kcat means the maximal rate divided by the concentration of active sites.
